Results on 20 compounds are retold here after patent US20070299072A1, “KV1.5 POTASSIUM CHANNEL INHIBITORS” (Wyeth, priority 2006, published 2007).

Broadly, the IC50 is the concentration at which inhibition is half-maximal.

Each structure is given as a SMILES string.

Holding throughout (format): cell-based
The target of one data set is T1, Kv1.5 (Homo sapiens, UniProt P22460).
T1 construct: expressed in transfected cells; host or cells: HEK or LTK- cells
Description: Kv1.5 Patch Clamp EP (whole cell patch clamp; single point at 1 μM and IC50). To be noted: for inhibition at 1 µM: single point at 1.0 μM, Kv1.5 stably over expressed in HEK or LTK- cells; for IC50: concentration response. The protocol: The external solution is standard Tyrodes solution. […] Inhibition was measured at the end of the 1 second pulses and expressed relative to controls. Initial Kv1.5 inhibition is estimated by single point determinations done at 1 μM.
Background: In patch-clamp work, channel activity is measured electrically.

For a further data set, the system named is L-type calcium channels. Kind of data set: FLIPR L-type Calcium Channel Assay (calcium influx in HL-1 cells after KCl). To be noted: read-out: L-type Ca2+ IC50. The protocol:
HL-1 cells expressing endogenous L-type calcium channels are removed from culture flasks using trypsin, plated on fibronectin/gelatin-coated, clear-bottomed, black-walled 96-well microplates in Claycomb media (JRH Biosciences #51800) containing 10% fetal bovine serum, 4 mM L-glutamine, and 10 μM norepinephrine, and grown to confluency overnight. The next day, growth medium is aspirated from confluent cell monolayers and replaced with 100 μL per well Tyrode's solution (in mM: 130 NaCl, 4 KCl, 1.8 CaCl2, 1.0 MgCl2, 20 HEPES, 10 glucose, pH 7.35) and 50 μL per well FLIPR Calcium Assay kit, component A (#R-8033, Molecular Devices Corporation) and incubated for 60 min. in a 5% CO2 37° C. incubator. 50 μL per well test compounds are added to the plates and further incubated for 15 min. in a 5% CO2 37° C. incubator. All final solutions contain the anion exchange inhibitor, probenecid (2.5 mM). The 96-well plates are then placed in the center position of the FLIPR 1 (Fluorometric Imaging Plate Reader, Molecular Devices Corporation). Cell monolayers in each well are simultaneously illuminated at 488 nm with an Argon ion laser, and fluorescence emission is monitored using a 510-570 nm bandpass filter and a cooled CCD camera. To depolarize the plasma membrane and activate L-type calcium channels, 50 μL per well of 20 mM KCl (final concentration) are dispensed simultaneously to all 96 wells using the FLIPR's automatic 96-well pipettor. Fluorescence measurements are captured for 5 min. following KCl addition. Calcium influx, expressed as % control, is calculated for each concentration of test compound and concentration-response curves and IC50 values are generated using GraphPad Prism 4.0.

For a further data set, the target named is T2, HERG (Homo sapiens, UniProt Q12809).
T2 construct: expressed in transfected cells; host or cells: HEK cells
Kind of data set: HERG Patch Clamp EP (whole cell patch clamp, tail currents; single point at 10 μM and IC50). To be noted: for inhibition at 10 µM: human, HEK cells stably overexpressing HERG, single point at 10 μM, HERG in HEK cells, read-out: HERG % Inhib. @ 10 μM; for IC50: concentration response. The text has this:
The external solution is standard Tyrodes solution.

T1 sequence (P22460 whole entry): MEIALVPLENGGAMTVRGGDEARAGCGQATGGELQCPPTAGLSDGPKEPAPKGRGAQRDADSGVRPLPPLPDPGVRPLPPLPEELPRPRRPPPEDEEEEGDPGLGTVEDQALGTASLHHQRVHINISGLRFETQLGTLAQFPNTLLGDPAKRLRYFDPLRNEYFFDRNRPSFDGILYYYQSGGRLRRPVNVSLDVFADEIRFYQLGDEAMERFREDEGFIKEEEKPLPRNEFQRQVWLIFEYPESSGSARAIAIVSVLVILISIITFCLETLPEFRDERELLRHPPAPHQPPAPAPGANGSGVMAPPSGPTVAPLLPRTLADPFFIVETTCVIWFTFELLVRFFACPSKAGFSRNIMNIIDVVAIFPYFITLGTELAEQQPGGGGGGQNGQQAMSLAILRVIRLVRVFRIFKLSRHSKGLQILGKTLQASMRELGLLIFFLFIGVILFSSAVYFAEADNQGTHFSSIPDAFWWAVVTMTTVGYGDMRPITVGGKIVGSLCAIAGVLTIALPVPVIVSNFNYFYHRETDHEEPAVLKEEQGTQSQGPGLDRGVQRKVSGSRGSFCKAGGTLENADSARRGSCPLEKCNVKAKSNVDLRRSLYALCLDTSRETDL
T2 sequence (Q12809 whole entry): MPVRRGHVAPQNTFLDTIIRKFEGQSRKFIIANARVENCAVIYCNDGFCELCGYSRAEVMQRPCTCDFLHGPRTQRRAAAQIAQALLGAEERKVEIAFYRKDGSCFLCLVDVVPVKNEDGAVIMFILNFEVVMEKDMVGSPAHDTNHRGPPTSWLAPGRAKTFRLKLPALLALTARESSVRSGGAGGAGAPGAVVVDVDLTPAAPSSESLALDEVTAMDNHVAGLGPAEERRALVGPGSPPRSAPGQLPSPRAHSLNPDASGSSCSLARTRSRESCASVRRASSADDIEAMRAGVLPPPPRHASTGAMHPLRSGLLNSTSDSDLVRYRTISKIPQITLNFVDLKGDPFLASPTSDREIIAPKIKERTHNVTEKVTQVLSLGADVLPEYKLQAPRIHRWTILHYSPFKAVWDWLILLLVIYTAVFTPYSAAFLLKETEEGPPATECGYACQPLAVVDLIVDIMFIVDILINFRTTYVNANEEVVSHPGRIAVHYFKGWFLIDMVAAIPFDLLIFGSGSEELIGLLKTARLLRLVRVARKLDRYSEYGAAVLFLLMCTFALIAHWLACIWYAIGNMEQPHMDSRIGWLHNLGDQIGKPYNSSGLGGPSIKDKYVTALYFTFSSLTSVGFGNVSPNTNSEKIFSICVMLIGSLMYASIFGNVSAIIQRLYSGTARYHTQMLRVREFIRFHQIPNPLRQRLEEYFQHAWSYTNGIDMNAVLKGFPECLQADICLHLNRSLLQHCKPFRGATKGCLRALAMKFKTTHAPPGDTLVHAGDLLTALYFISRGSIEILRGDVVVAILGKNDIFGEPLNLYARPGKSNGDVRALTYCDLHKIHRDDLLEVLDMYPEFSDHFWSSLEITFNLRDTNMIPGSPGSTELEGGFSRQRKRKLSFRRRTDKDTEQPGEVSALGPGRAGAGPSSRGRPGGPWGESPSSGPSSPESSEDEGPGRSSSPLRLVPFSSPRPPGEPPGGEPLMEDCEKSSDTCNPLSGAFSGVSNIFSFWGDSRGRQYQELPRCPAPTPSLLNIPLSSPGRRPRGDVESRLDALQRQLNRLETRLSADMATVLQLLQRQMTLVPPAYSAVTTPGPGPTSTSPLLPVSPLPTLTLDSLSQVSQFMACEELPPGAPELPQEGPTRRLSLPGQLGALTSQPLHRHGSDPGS

With `CCN(CC)c1ccc(C2N(CCc3ccc(OC)cc3)C(=O)C3(CCN(C(=O)OC(C)(C)C)CC3)N2C)cc1` (stereo not shown) [Compound 39, tert-Butyl 2-(4-diethylaminophenyl)-3-[2-(4-methoxyphenyl)ethyl]-1-methyl-4-oxo-1,3,8-triazaspiro[4.5]decane-8-carboxylate], the inhibition at 1 µM against Kv1.5 is 86%. In addition, the IC50 with L-type calcium channels worked out at 4.4 µM.

At Kv1.5, `COc1ccc(CCN2C(=O)C3(CCN(S(C)(=O)=O)CC3)N(C)C2c2ccc(C(C)(C)C)cc2)cc1` (stereo not shown) [Compound 33, 2-(4-tert-Butylphenyl)-8-methanesulfonyl-3-[2-(4-methoxyphenyl)ethyl]-1-methyl-1,3,8-triaza-spiro[4.5]decan-4-one] returned an inhibition at 1 µM of 80%. On HERG, the inhibition at 10 µM came to 54%. Besides, the IC50 with L-type calcium channels came to 25 µM.

At Kv1.5, `CN1C(c2ccc(C3CC3)cc2)N(CCCc2ccccc2)C(=O)C12CCN(S(C)(=O)=O)CC2` (stereo not shown) [Compound 54, 2-(4-Cyclopropylphenyl)-8-methanesulfonyl-1-methyl-3-(3-phenylpropyl)-1,3,8-triazaspiro-[4.5]decan-4-one] displayed an IC50 of 0.266 µM and an inhibition at 1 µM of 88%. Besides, at HERG, 4.9 µM corresponded to half-maximal inhibition (IC50) and the inhibition at 10 µM is 53%. Further, the concentration for half-maximal inhibition (IC50) with L-type calcium channels amounted to 18 µM.

For `COC(=O)N1CCC2(CC1)NC(c1ccc(C3CC3)cc1)N(CCc1ccc(OC)cc1)C2=O` (stereo not shown) [Compound 75, Methyl 2-(4-cyclopropylphenyl)-3-[2-(4-methoxyphenyl)ethyl]-4-oxo-1,3,8-triazaspiro[4.5]decane-8-carboxylate], the inhibition at 1 µM against Kv1.5 is 94%. In addition, the inhibition at 10 µM at HERG is 2%. Also, the IC50 in the data set on L-type calcium channels was found to be 19 µM.

In the case of `COc1ccc(CCN2C(=O)C3(CCN(C(N)=O)CC3)N(C)C2c2ccc(C(F)(F)F)cc2)cc1` (stereo not shown) [Compound 11, 2-(4-Trifluoromethylphenyl)-3-[2-(4-methoxyphenyl)ethyl]-1-methyl-4-oxo-1,3,8-triaza-spiro[4.5]decane-8-carboxylic acid amide], the inhibition at 1 µM against Kv1.5 is 29%. On HERG, the inhibition at 10 µM was 33%.

Consider `COc1ccc(CCN2C(=O)C3(CCN(S(C)(=O)=O)CC3)N(C)C2c2ccc(C(F)(F)F)cc2)cc1` (stereo not shown) [Compound 34, 2-(4-Trifluoromethylphenyl)-8-methanesulfonyl-3-[2-(4-methoxyphenyl)ethyl]-1-methyl-1,3,8-triaza-spiro[4.5]decan-4-one], for which the inhibition at 1 µM at Kv1.5 is 80%. Moreover, the inhibition at 10 µM on HERG worked out at 50%. In the data set on L-type calcium channels, the concentration for half-maximal inhibition (IC50) was 18 µM.

As to `COc1ccc(C2N(CCCc3ccccc3)C(=O)C3(CCN(C(=O)C4CC4)CC3)N2C)cc1` (stereo not shown) [Compound 46, 8-Cyclopropanecarbonyl-2-(4-methoxyphenyl)-3-(3-phenylpropyl)-1-methyl-1,3,8-triazaspiro-[4.5]decan-4-one], the inhibition at 1 µM on Kv1.5 worked out at 68%. In addition, the inhibition at 10 µM at HERG came out at 32%. Further, in the data set with L-type calcium channels, the IC50 was 17 µM.

As for `CCNC(=O)N1CCC2(CC1)C(=O)N(CCc1ccc(OC)cc1)C(c1ccc(C(C)(C)C)cc1)N2C` (stereo not shown) [Compound 15, 2-(4-tert-Butylphenyl)-3-[2-(4-methoxyphenyl)ethyl]-1-methyl-4-oxo-1,3,8-triaza-spiro[4.5]decane-8-carboxylic acid ethyl amide], the inhibition at 1 µM against Kv1.5 came out at 84%. Further, the half-inhibitory concentration (IC50) with L-type calcium channels came out at 2.5 µM.

With `COc1ccc(CCN2C(=O)C3(CCN(C(N)=O)CC3)N(C)C2c2ccc(C(C)(C)C)cc2)cc1` (stereo not shown) [Compound 12, 2-(4-tert-Butylphenyl)-3-[2-(4-methoxyphenyl)ethyl]-1-methyl-4-oxo-1,3,8-triaza-spiro[4.5]decane-8-carboxylic acid amide], at Kv1.5, it took 0.611 µM to reach half-maximal inhibition (IC50) and the inhibition at 1 µM came out at 70%. Moreover, the inhibition at 10 µM at HERG stood at 40%. The IC50 in the data set with L-type calcium channels was found to be 8 µM.

As for `COc1ccc(CCN2C(=O)C3(CCN(C(=O)NNC(=O)OC(C)(C)C)CC3)N(C)C2c2ccc(C3CC3)cc2)cc1` (stereo not shown) [Compound 29, tert-Butyl 2-({2-(4-cyclopropylphenyl)-3-[2-(4-methoxyphenyl)ethyl]-1-methyl-4-oxo-1,3,8-triazaspiro[4.5]dec-8-yl}carbonyl)hydrazine carboxylate], the inhibition at 1 µM on Kv1.5 came out at 83%. Moreover, the inhibition at 10 µM on HERG was 31%. In addition, in the data set on L-type calcium channels, the half-inhibitory concentration (IC50) was 8 µM.

At Kv1.5, `COc1ccc(CCN2C(=O)C3(CCN(C(N)=NC#N)CC3)N(C)C2c2ccc(OC)cc2)cc1` (stereo not shown) [Compound 30, N′-cyano-2-(4-methoxyphenyl)-3-[2-(4-methoxyphenyl)ethyl]-1-methyl-4-oxo-1,3,8-triazaspiro[4.5]decane-8-carboximidamide] yielded an IC50 of 0.166 µM and an inhibition at 1 µM of 93%. Also, at HERG, the IC50 was determined as 6 µM and the inhibition at 10 µM came to 91%. For the same compound, the IC50 in the data set on L-type calcium channels was found to be 21 µM.

`CN1C(c2ccc(C3CC3)cc2)N(CCCc2ccccc2)C(=O)C12CCN(C(=O)OC(C)(C)C)CC2` (stereo not shown) [Compound 47, 2-(4-Cyclopropylphenyl)-1-methyl-4-oxo-3-(3-phenylpropyl)-1,3,8-triazaspiro-[4.5]decane-8-carboxylic acid tert-butyl ester]: the inhibition at 1 µM against Kv1.5 amounted to 75%. Also, in the data set with L-type calcium channels, the IC50 was determined as 20 µM.

Turning to `CN1C(c2ccc(C3CC3)cc2)N(CCCc2ccccc2)C(=O)C12CCN(C(=O)C1CC1)CC2` (stereo not shown) [Compound 45, 8-Cyclopropanecarbonyl-2-(4-cyclopropylphenyl)-3-(3-phenylpropyl)-1-methyl-1,3,8-triazaspiro-[4.5]decan-4-one], on Kv1.5, the IC50 amounted to 0.287 µM and the inhibition at 1 µM was 77%. On HERG, the IC50 turned out to be 3.3 µM and the inhibition at 10 µM was 87%. Also, the IC50 in the data set on L-type calcium channels worked out at 6.2 µM.

As to `CNC(=O)N1CCC2(CC1)C(=O)N(CCCc1ccccc1)C(c1ccc(C3CC3)cc1)N2C` (stereo not shown) [Compound 51, 2-(4-Cyclopropylphenyl)-1-methyl-4-oxo-3-(3-phenylpropyl)-1,3,8-triazaspiro-[4.5]decane-8-carboxylic acid methylamide], at Kv1.5, the inhibition at 1 µM is 73%. For the same compound, the IC50 in the data set on L-type calcium channels was 10 µM.

Consider `COc1ccc(CCN2C(=O)C3(CCN(C(=O)OC(C)(C)C)CC3)N(C)C2c2ccc(C3CC3)cc2)cc1` (stereo not shown) [Compound 65, 2-(4-cyclopropylphenyl)-3-[2-(4-methoxyphenyl)ethyl]-1-methyl-4-oxo-1,3,8-triaza-spiro[4.5]decane-8-carboxylic acid tert-butyl ester], for which, on Kv1.5, the inhibition at 1 µM was found to be 80%. The IC50 in the data set on L-type calcium channels is 3.6 µM.

Turning to `COc1ccc(CCN2C(=O)C3(CCN(C(=O)OC(C)C)CC3)N(C)C2c2ccc(C3CC3)cc2)cc1` (stereo not shown) [Compound 36, Isopropyl 2-(4-cyclopropylphenyl)-3-[2-(4-methoxyphenyl)ethyl]-1-methyl-4-oxo-1,3,8-triazaspiro[4.5]decane-8-carboxylate], on Kv1.5, the inhibition at 1 µM came out at 92%. Moreover, the concentration for half-maximal inhibition (IC50) in the data set with L-type calcium channels worked out at 7.4 µM.

In turn, `COc1ccc(CCN2C(=O)C3(CCN(C(N)=O)CC3)N(C)C2c2ccc(OC(F)F)cc2)cc1` (stereo not shown) [Compound 13, 2-(4-Difluoromethoxyphenyl)-3-[2-(4-methoxyphenyl)ethyl]-1-methyl-4-oxo-1,3,8-triaza-spiro[4.5]decane-8-carboxylic acid amide] had an inhibition at 1 µM against Kv1.5 of 46%. For the same compound, the inhibition at 10 µM at HERG stood at 57%.

For `COc1ccc(CCN2C(=O)C3(CCN(C(=O)N(C)OC)CC3)N(C)C2c2ccc(C3CC3)cc2)cc1` (stereo not shown) [Compound 28, 2-(4-Cyclopropylphenyl)-N-methoxy-3-[2-(4-methoxyphenyl)ethyl]-N,1-dimethyl-4-oxo-1,3,8-triazaspiro[4.5]decane-8-carboxamide], the inhibition at 1 µM against Kv1.5 is 88%. Also, the half-maximal inhibitory concentration (IC50) in the data set on L-type calcium channels was found to be 8.4 µM.

Regarding `CCN(CC)C(=O)N1CCC2(CC1)C(=O)N(CCc1ccc(OC)cc1)C(c1ccc(C3CC3)cc1)N2C` (stereo not shown) [Compound 19, 2-(4-Cyclopropylphenyl)-3-[2-(4-methoxyphenyl)ethyl]-1-methyl-4-oxo-1,3,8-triaza-spiro[4.5]decane-8-carboxylic acid diethylamide], the inhibition at 1 µM against Kv1.5 was determined as 97%. In addition, the IC50 in the data set on L-type calcium channels amounted to 5.3 µM.

As for `COc1ccc(CCN2C(=O)C3(CCN(C(=O)OC(C)(C)C)CC3)NC2c2ccc(C(C)(C)C)cc2)cc1` (stereo not shown) [Compound 60, 2-(4-tert-Butylphenyl)-3-[2-(4-methoxyphenyl)ethyl]-4-oxo-1,3,8-triaza-spiro[4.5]decane-8-carboxylic acid tert-butyl ester], the inhibition at 1 µM against Kv1.5 was determined as 32%.
